Tests used:
[1] = tested on: B16 murine melanoma and C26 murine colon carcinoma; assay: tumor growth in B16 or C26-tumor bearing mice; format: in vivo; details: i.v. 20 mg/kg, between day 7 and day 14, after a second injection at day 7
Experimental: B16 murine melanoma and C26 murine colon carcinoma cells were cultured at 37° C. in a 5% CO2-containing humidified atmosphere in DMEM medium (Gibco, Breda, The Netherlands) containing 10% (v/v) fetal calf serum supplemented with 2 mM L-glutamine, 100 IU/ml penicillin, 100 microgram/ml streptomycin and 0.25 microgram/ml amphotericin B (Gibco). Male Balb/c and C57B1/6 mice (6-8 weeks of age) were obtained from Charles River, kept in standard housing with standard rodent chow and water available ad libitum, and a 12 h light/dark cycle. Experiments were performed according to national regulations and approved by the local animal experiments ethical committee. Mice received a single intravenous injection of an indicated dose of free caffeic acid or liposomal caffeic acid prepared in Example 1 at the time when the tumor became palpable. At 7 days after treatment, tumor size was measured and tumor volume calculated according to the equation V=0.52×a^2×b, wherein a is the smallest and b is the largest superficial diameter. […] Tumor size was measured regularly, and tumor volume was calculated as described above. For the statistical analysis, data were analysed by one-way ANOVA with Dunnett's post test using GraphPad InStat version 3.05 for Windows, GraphPad Software (San Diego, USA). […] Spearman rank correlation coefficient was calculated to identify dose-response. […]

cells = details: 80 micomoles of naringenin per liter, for 24 hours; cited from earlier work
[2] = oral ingestion, best case scenario; cited from earlier work
[3] = dietary (ingested) polyphenols; cited from earlier work

O=C(O)/C=C/c1ccc(O)c(O)c1 [free caffeic acid, caffeic acid]
effect on tumor volume [1]: did not reduce tumor volume

O=C1C[C@@H](c2ccc(O)cc2)Oc2cc(O)cc(O)c21 [naringenin]
reduction of hydroxyl damage to the DNA (cells): 24%
ingested amount absorbed in the human gastrointestinal tract [2]: ≤ 15%

O=c1c(O)c(-c2ccc(O)c(O)c2)oc2cc(O)cc(O)c12 [quercetin]
bioavailability [3]: 1-5%

Reference: patent publication US20100143452A1, “POLYPHENOL CONTAINING COMPOSITIONS” (Universiteit Utrecht Holding B.V., priority 2006, published 2010)
